Measured values taken from ChEMBL document CHEMBL1201862, “PubChem BioAssay data set” (2004).
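These data come from cells grown in 96-well plates and exposed to compound for 48 hours at five concentrations. GI50 marks 50% less growth.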 The source made the active and inactive calls. No stated cut-off is given here; in the data, active = GI50 up to about 1.1 µM and inactive = higher.

Experiments:
Assay in all cases: growth of human tumour cells (NCI), 48 h
[1] = tested on: SF-539
[2] = tested on: HL-60
[3] = tested on: A549
[4] = tested on: Hs-578T
[5] = tested on: SK-OV-3
[6] = tested on: SF-295
[7] = tested on: T47D
[8] = tested on: PC-3
[9] = tested on: HCC 2998
[10] = tested on: MCF7
[11] = tested on: TK-10
[12] = tested on: U-251
[13] = tested on: DU-145
[14] = tested on: SNB-75
[15] = tested on: EKVX
[16] = tested on: NCI-H522
[17] = tested on: OVCAR-5
[18] = tested on: RPMI-8226
[19] = tested on: UO-31

Measured: GI50

Nc1ccc2c(c1)nc1n2C(c2c(F)cccc2F)SC1 (stereo not drawn)
inactive: [1] > 100 µM | [2] 48.5 µM | [3] > 100 µM | [4] > 100 µM | [5] > 100 µM | [6] > 100 µM | [7] 76.4 µM | [8] > 100 µM | [9] > 100 µM | [10] > 100 µM | [11] > 100 µM | [12] > 100 µM | [13] > 100 µM | [14] > 100 µM | [15] > 100 µM | [16] > 100 µM | [17] > 100 µM | [18] > 100 µM | [19] 97.7 µM

O=C(O)c1ccc2c(c1)CC1(C2)Cc2ccccc2C1=O (stereo not drawn)
inactive: [1] > 100 µM | [2] > 100 µM | [3] > 100 µM | [4] > 100 µM | [5] > 100 µM | [6] > 100 µM | [7] > 100 µM | [8] > 100 µM | [9] > 100 µM | [10] > 100 µM | [11] > 100 µM | [12] > 100 µM | [13] > 100 µM | [14] > 100 µM | [15] > 100 µM | [16] > 100 µM | [17] > 100 µM | [18] > 100 µM | [19] > 100 µM

CC(C)OP(=O)(OC(C)C)C(C(C)C)N(C)/C(N)=N\C1=NC(C(F)(F)F)(C(F)(F)F)N=C(C(C(F)(F)F)C(F)(F)F)O1 (stereo not drawn)
inactive: [1] 3.75 µM | [2] 1.12 µM | [3] 2.88 µM | [4] 4.99 µM | [5] 5.4 µM | [6] 3.66 µM | [7] 3.01 µM | [8] 2.56 µM | [9] 4.91 µM | [10] 3.79 µM | [11] 3.61 µM | [12] 3.08 µM | [13] 6.9 µM | [14] 2.42 µM | [15] 3.66 µM | [16] 1.41 µM | [17] 2.55 µM | [18] 1.97 µM | [19] 4.47 µM

CCN(CC)CCCNc1nnc(C)c2[nH]c3ccccc3c12
inactive: [1] 2.28 µM | [2] 3.28 µM | [3] 17.8 µM | [4] 15.4 µM | [5] 11 µM | [6] 20.8 µM | [7] 12.7 µM | [8] 12.1 µM | [9] 9.95 µM | [10] 3.61 µM | [11] 20.2 µM | [12] 13.4 µM | [13] 18.9 µM | [14] 18.3 µM | [15] 18.7 µM | [16] 5.7 µM | [17] 19.6 µM | [18] 23.5 µM | [19] 37.2 µM

O=c1c2ccccc2sc2ccccc12
inactive: [1] > 100 µM | [2] > 100 µM | [3] > 100 µM | [4] > 100 µM | [5] > 100 µM | [6] > 100 µM | [7] > 100 µM | [8] > 100 µM | [9] > 100 µM | [10] > 100 µM | [11] > 100 µM | [12] 14.9 µM | [13] > 100 µM | [14] > 100 µM | [15] > 100 µM | [16] > 100 µM | [17] > 100 µM | [18] > 100 µM | [19] > 100 µM

CCOC(=O)NN(C(=O)OCC)C(=C(c1ccccc1)N1CCOCC1)N(NC(=O)OCC)C(=O)OCC
inactive: [1] > 100 µM | [2] > 100 µM | [3] > 100 µM | [4] > 100 µM | [5] > 100 µM | [6] > 100 µM | [7] > 100 µM | [8] > 100 µM | [9] > 100 µM | [10] > 100 µM | [11] > 100 µM | [12] > 100 µM | [13] > 100 µM | [14] 44 µM | [15] > 100 µM | [16] > 100 µM | [17] > 100 µM | [18] > 100 µM | [19] 58.5 µM

CN(C)c1cc[n+](-c2nc([N-]C(=O)C(F)(F)F)nc3c2ncn3C2CC(O)C(CO)O2)cc1 (stereo not drawn)
inactive: [1] > 100 µM | [2] > 100 µM | [3] > 100 µM | [4] > 100 µM | [5] > 100 µM | [6] > 100 µM | [7] > 100 µM | [8] > 100 µM | [9] > 100 µM | [10] > 100 µM | [11] > 100 µM | [12] > 100 µM | [13] > 100 µM | [14] > 100 µM | [15] > 100 µM | [16] > 100 µM | [17] > 100 µM | [18] > 100 µM | [19] > 100 µM

COC(=O)C(CCC1C=CCC1)/N=C\c1ccccc1 (stereo not drawn)
inactive: [1] > 100 µM | [2] 36.8 µM | [3] 49.9 µM | [4] > 100 µM | [5] > 100 µM | [6] 57.7 µM | [7] 47.4 µM | [8] 35.6 µM | [9] 86.3 µM | [10] 46.8 µM | [11] 99.1 µM | [12] 52.1 µM | [13] 97.9 µM | [14] 93.3 µM | [15] 44.8 µM | [16] 54.2 µM | [17] > 100 µM | [18] 24.5 µM | [19] 51.9 µM

O=C(/C=C/c1ccsc1)c1ccco1
inactive: [1] 14.4 µM | [2] 7.26 µM | [4] 9.4 µM | [5] 18.5 µM | [6] 14.2 µM | [7] 11.8 µM | [8] 14.6 µM | [9] 12.2 µM | [10] 2.21 µM | [11] 20 µM | [12] 7.67 µM | [13] 13.6 µM | [14] 12.8 µM | [15] 16.4 µM | [16] 1.76 µM | [17] 17.1 µM | [18] 3.52 µM | [19] 8.87 µM

CC1OC2OC3C(OCC(O)C3O)OC(=O)[C@]34CCC(C)(C)CC3C3=CCC5[C@@]6(C)C[C@H](O)[C@H](OC7OC(CO)C(O)C(O)C7OC7OCC(OC(=O)CC(C)(O)CC(=O)OC1C(OC1OC(CO)C(O)C(O)C1O)C2O)C(O)C7O)[C@@](C)(CO)C6CC[C@@]5(C)[C@]3(C)CC4 (stereo partly drawn)
inactive: [1] 13.5 µM | [2] 1.8 µM | [3] 3.85 µM | [4] 14.6 µM | [5] 12.4 µM | [6] 4.06 µM | [7] 9.46 µM | [8] 7.91 µM | [9] 2.43 µM | [10] 12 µM | [11] 10.8 µM | [12] 8.71 µM | [13] 8.09 µM | [14] 11.5 µM | [16] 11.6 µM | [17] 8.91 µM | [18] 10.6 µM | [19] 4.47 µM
